For orientation: IC50 means the concentration that gives 50% inhibition.

For this experiment, the target named is T1, Cathepsin K (Homo sapiens, UniProt P43235).
T1 sequence (P43235 whole entry): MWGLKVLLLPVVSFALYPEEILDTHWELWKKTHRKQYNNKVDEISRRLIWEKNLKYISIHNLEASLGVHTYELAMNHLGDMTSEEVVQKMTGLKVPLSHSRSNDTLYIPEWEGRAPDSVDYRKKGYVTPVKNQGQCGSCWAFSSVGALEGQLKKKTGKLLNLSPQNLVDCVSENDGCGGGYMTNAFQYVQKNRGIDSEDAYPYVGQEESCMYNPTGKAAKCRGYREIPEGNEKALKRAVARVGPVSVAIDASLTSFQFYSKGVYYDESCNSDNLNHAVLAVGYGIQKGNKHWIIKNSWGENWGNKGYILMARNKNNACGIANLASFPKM
The experiment can be described thus: Inhibitory activity against recombinant human cathepsin K.
Regarding `CCCCCC[C@@H](C=O)NC(=O)OC(C)(C)C`, the IC50 is 23 nM.
For the compound `CC(C)(C)OC(=O)N[C@H](C=O)CCCc1ccccc1`, the IC50 was 15 nM.
`COC(=O)NC[C@@H](C=O)NC(=O)OC(C)(C)C`: the IC50 came out at 370 nM.
Take `CCC(C)[C@H](C=O)NC(=O)OC(C)(C)C` (stereo partly drawn): the IC50 amounted to 130 nM.
Turning to `CCC(C)[C@@H](C=O)NC(=O)OC(C)(C)C` (stereo partly drawn), the IC50 was 250 nM.
With `CC(C)(C)OC(=O)N[C@H](C=O)CCCC1CCCCC1`, the IC50 turned out to be 16 nM.
The same measure for `CC(C)(C)OC(=O)N[C@H](C=O)CC1CCCCC1`: 36 nM; for `CCCCC[C@@H](C=O)NC(=O)OC(C)(C)C`: 110 nM; for `CSCC[C@@H](C=O)NC(=O)OC(C)(C)C`: 78 nM.
Turning to `CC(C)(C)OC(=O)N[C@H](C=O)c1ccccc1`, the IC50 came out at 51 nM.
The same measure for `CC(C)(C)OC(=O)N[C@H](C=O)CCc1ccccc1`: 30 nM; for `CN(CCCC[C@@H](C=O)NC(=O)OC(C)(C)C)C(=O)C(F)(F)F`: 50 nM; for `CC(C)[C@@H](C=O)NC(=O)OC(C)(C)C`: 160 nM.
Then `CC(C)(C)OC(=O)N[C@H](C=O)CCCCNC(=O)C(F)(F)F`, with 41 nM; and `CN(CCC[C@@H](C=O)NC(=O)OC(C)(C)C)C(=O)C(F)(F)F`, with 29 nM.
For `COCC[C@@H](C=O)NC(=O)OC(C)(C)C`, the IC50 turned out to be 680 nM.
Then `CN(CC[C@@H](C=O)NC(=O)OC(C)(C)C)C(=O)C(F)(F)F`, with 98 nM; and `CC[C@@H](C=O)NC(=O)OC(C)(C)C`, with 58 nM; and `CCSC[C@@H](C=O)NC(=O)OC(C)(C)C`, with 83 nM.
The same measure for `CC(C)(C)C[C@@H](C=O)NC(=O)OC(C)(C)C`: 250 nM; for `CCOC[C@@H](C=O)NC(=O)OC(C)(C)C`: 660 nM; for `CC(C)(C)OC(=O)N[C@H](C=O)Cc1ccccc1`: 110 nM.
The same measure for `C/C=C/C[C@@H](C=O)NC(=O)OC(C)(C)C`: 150 nM; for `CCC[C@@H](C=O)NC(=O)OC(C)(C)C`: 38 nM; for `CC#CC[C@@H](C=O)NC(=O)OC(C)(C)C`: 410 nM.
As for `C[C@@H](C=O)NC(=O)OC(C)(C)C`, the IC50 amounted to 200 nM.
The same measure for `CC(C)(C)OC(=O)N[C@H](C=O)C(C)(C)C`: 52000 nM.
Then `CC(C)(C)OC(=O)NCC=O`, with 5800 nM.
`CC(C)(C)OC(=O)N[C@H](C=O)CCCC(F)(F)F`: the IC50 turned out to be 87 nM.
With `CC(C)(C)OC(=O)N[C@H](C=O)CCC1CCCCC1`, the IC50 was determined as 26 nM.
Take `COC(=O)NCCCC[C@@H](C=O)NC(=O)OC(C)(C)C`: the IC50 is 15 nM.
Then `C/C=C\C[C@@H](C=O)NC(=O)OC(C)(C)C`, with 41 nM; and `C=C(C)C[C@@H](C=O)NC(=O)OC(C)(C)C`, with 79 nM; and `CC(C)(C)OC(=O)N[C@H](C=O)CSCc1ccccc1`, with 40 nM.
The same measure for `CC(C)(C)OC(=O)N[C@H](C=O)COCc1ccccc1`: 38 nM.
Then `CC(C)C[C@@H](C=O)NC(=O)OC(C)(C)C`, with 31 nM; and `CCCC[C@@H](C=O)NC(=O)OC(C)(C)C`, with 51 nM; and `CCCC[C@@H](C=O)NC(=O)[C@H](CC(C)C)NC(=O)OCc1ccccc1` [CALPEPTIN], with 0.11 nM.

For the origin of these results see ChEMBL document CHEMBL1149234, “Exploration of the P1 SAR of aldehyde cathepsin K inhibitors” (Bioorg Med Chem Lett, 2004).
